Laboratory results as given in patent US12115157B2, “3-phenoxyazetidin-1-yl-heteroaryl pyrrolidine derivatives and the use thereof as medicament” (Boehringer Ingelheim International GmbH, priority 2021, dated 2024).

Assays:
human plasma proteins = assay: Human plasma protein binding assay (equilibrium dialysis); assay type: in vitro ADME; conditions: 1 μM, 2 hours, 37° C.
Procedure: Equilibrium dialysis (ED) technique was used to determine the approximate in vitro fractional binding of test compounds to plasma proteins. Dianorm Teflon dialysis cells (micro 0.2) were used. Each dialysis cell consists of a donor and an acceptor chamber, separated by an ultrathin semipermeable membrane with a 5 kDa molecular weight cut-off. Stock solutions for each test compound were prepared in DMSO at 1 mM and serially diluted to obtain a final test concentration of 1 μM. The subsequent dialysis solutions were prepared in plasma (supplemented with NaEDTA as anticoagulant), and aliquots of 200 μL test compound dialysis solution in plasma were dispensed into the donor (plasma) chambers. Aliquots of 200 μL dialysis buffer (100 mM potassium phosphate, pH 7.4) were dispensed into the buffer (acceptor) chamber. Incubation was carried out for 2 hours under rotation at 37° C. for establishing equilibrium.
At the end of the dialysis period, aliquots obtained from donor and acceptor chambers, respectively, were transferred into reaction tubes, spiked with Internal Standard solution and processed for HPLC-MS/MS analysis. Analyte concentrations were quantified in aliquots of samples by HPLC-MS/MS against external calibration curves.
Percent bound was calculated using the formula: % bound=(plasma concentration−buffer concentration/plasma concentration)×100

[1] = system: primary human hepatocytes; assay: In vitro metabolite profiling in primary human hepatocytes with or without proadifen; assay type: in vitro ADME; conditions: for % Parent of drug-related material: incubations in primary human hepatocytes, 1 μM test compound; for Contribution of amide hydrolysis to metabolism (incl. secondary metabolites): abundance of deacetylated metabolites relative to all metabolites
Procedure: In vitro metabolite profiling to evaluate the involvement of non-CYP-enzyme-mediated metabolic pathways such as hydrolysis in addition to CYP-mediated pathways is based on the semiquantitative analysis of the formation of prototypic metabolites in incubations with liver microsomes (with and without beta-nicotinamide adenine dinucleotide phosphate, NADPH), primary human hepatocytes (with and without the pan-CYP inhibitor proadifen) and recombinant CYP enzymes.
An additional measure to identify CYP-independent metabolic pathways is the use of the pan-CYP inhibitor proadifen in incubations of the test compound with human hepatocytes. In presence of proadifen, the CYP-related pathways are inhibited and metabolites would primarily be generated via non-CYP pathways.
The involvement of non-CYP-enzymes in metabolic transformations of the test compound was further investigated using primary human hepatocytes in suspension in presence or absence of the pan-CYP inhibitor proadifen (50 μM final incubation concentration). After recovery from cryopreservation, human hepatocytes were incubated in Dulbecco's modified eagle medium supplemented with 3.5 μg glucagon/500 ml, 2.5 mg insulin/500 ml and 3.75 mg/500 ml hydrocortisone containing 5% (v/v) human serum.
Following a 30 min preincubation in a cell culture incubator (37° C., 10% CO2) with or without 50 μM proadifen, test compound solution was spiked into the hepatocyte suspension to obtain a final cell density of 1.0*10^6 to 4.0*10^6 cells/ml (depending on the metabolic turnover rate of the compound observed with primary human hepatocytes), a final test compound concentration of 1 μM, and a final DMSO concentration of 0.05% (v/v).
The cells were incubated for six hours (incubator, horizontal shaker) and samples were removed from the incubation after 0, 0.5, 1, 2, 4 or 6 hours, depending on the metabolic turnover rate. Samples were quenched with acetonitrile and pelleted by centrifugation. The supernatant was transferred to a 96-deepwell plate, evaporated under nitrogen, and resuspended prior to bioanalysis by liquid chromatography-high resolution mass spectrometry for identification of putative metabolites.
The contribution of hydrolysis was calculated based on the abundance of the respective deacetylated metabolite(s) of the compounds of the present invention relative to all metabolites observed in incubations with human hepatocytes.

hERG channel = hERG channel (Homo sapiens (Human), UniProt Q12809); assay: hERG channel assay (whole-cell patch clamp); assay type: cell-based; conditions: HEK293 cells stably transfected with hERG cDNA
hERG channel, sequence (Q12809 whole entry): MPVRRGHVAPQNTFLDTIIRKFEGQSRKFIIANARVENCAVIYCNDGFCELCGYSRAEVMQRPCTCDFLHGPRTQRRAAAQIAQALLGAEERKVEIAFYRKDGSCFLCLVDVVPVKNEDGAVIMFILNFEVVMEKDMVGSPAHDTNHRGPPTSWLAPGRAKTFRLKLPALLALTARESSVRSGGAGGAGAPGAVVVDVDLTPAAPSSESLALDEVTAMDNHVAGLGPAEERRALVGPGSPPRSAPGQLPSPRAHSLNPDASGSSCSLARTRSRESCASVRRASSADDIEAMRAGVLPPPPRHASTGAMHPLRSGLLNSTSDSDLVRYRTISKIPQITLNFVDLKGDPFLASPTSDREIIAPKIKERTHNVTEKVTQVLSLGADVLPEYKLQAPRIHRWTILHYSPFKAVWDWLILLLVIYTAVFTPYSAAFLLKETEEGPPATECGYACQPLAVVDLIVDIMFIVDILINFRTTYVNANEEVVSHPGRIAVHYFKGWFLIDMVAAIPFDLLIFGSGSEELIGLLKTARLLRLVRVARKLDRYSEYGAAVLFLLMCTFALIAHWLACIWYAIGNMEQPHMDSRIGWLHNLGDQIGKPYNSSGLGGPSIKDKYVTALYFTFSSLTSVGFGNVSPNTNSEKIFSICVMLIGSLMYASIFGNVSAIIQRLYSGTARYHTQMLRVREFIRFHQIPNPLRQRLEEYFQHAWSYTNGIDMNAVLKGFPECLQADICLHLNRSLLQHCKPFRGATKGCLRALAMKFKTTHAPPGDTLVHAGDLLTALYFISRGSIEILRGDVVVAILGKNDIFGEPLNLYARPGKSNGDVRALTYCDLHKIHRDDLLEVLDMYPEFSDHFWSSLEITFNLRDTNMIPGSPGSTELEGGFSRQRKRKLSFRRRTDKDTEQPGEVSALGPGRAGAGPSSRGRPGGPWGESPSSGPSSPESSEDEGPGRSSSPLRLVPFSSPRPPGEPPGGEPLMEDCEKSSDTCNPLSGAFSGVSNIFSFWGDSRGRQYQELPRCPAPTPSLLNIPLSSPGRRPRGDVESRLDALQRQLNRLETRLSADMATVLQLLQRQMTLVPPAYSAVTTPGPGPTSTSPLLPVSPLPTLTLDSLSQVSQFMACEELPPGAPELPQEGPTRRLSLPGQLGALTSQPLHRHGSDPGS
Text: hERG Channel inhibition of compounds of the present invention was investigated as follows:
HEK (human embryonic kidney) 293 cells were stably transfected with hERG cDNA. Cells determined for use in patch clamp experiments were cultivated without antibiotic.
Cells were superfused with a bath solution containing (mM): NaCl (137), KCl (4.0), MgCl2 (1.0), CaCl2(1.8), Glucose (10), HEPES (10), pH 7.4 with NaOH. Patch pipettes were made from borosilicate glass tubing using a pipette and filled with pipette solution containing (mM): K-aspartate (130), MgCl2(5.0), EGTA (5.0), K2ATP (4.0), HEPES (10.0), pH 7.2 with KOH. Resistance of the microelectrodes was typically in the range between 2 MΩ and 5 MΩ.
Membrane currents were recorded using an EPC-10 patch clamp amplifier (HEKA Electronics, Lambrecht, FRG) and PatchMaster software (HEKA). hERG-mediated membrane currents were recorded at typically 28° C., using the whole-cell configuration of the patch-clamp technique. Transfected HEK293 cells were clamped at a holding potential of −60 mV and hERG-mediated inactivating tail currents were elicited using a pulse pattern with fixed amplitudes (activation/inactivation: 40 mV for 2000 ms; recovery: 120 mV for 2 ms; ramp to 40 mV in 2 ms; inactivating tail current: 40 mV for 50 ms) repeated at 15 s intervals. During each inter-pulse interval 4 pulses scaled down by a factor of 0.2 were recorded for a P/n leak subtraction procedure. Rs compensation was employed up to a level that safely allows recording devoid of ringing. The remaining uncompensated Rs was recorded as well as actual temperature and holding current.
The concentrations of the test item were applied sequentially on each of the different cells investigated. A steady state level of baseline current was measured for at least 5 sweeps prior to the application of the first test article concentration. The test item was dissolved in DMSO to yield a stock solution of 1000-fold the highest final concentration. This stock was diluted further in DMSO to stock solutions of 1000-fold the remaining final concentrations. Final dilutions in extracellular buffer were prepared freshly from these stocks by a 1:1000 dilution step each before starting the experiments.
Peak current amplitudes were measured 3 ms after the ramp to +40 mV. For baseline and each concentration, the peak currents of the three last sweeps before application of the next concentration were averaged. Residual currents (I/I0) were calculated for each cell as the fraction of actual average peak current and average baseline peak current. Current inhibition was expressed as […]. Current inhibition for all cells was reported as mean ±SD. If possible, from mean current inhibition data the IC50 was estimated based on the Hill equation using a least squares procedure.

Row | Hu PPB (human plasma proteins) | % Parent of drug-related material [1] | Contribution of amide hydrolysis to metabolism (incl. secondary metabolites) ([1]; primary human hepatocytes) | % Inhibition by 50 μM proadifen ([1]; formation of secondary metabolite m443 (of m429), primary human hepatocytes) | Compound | IC50 (hERG channel)
1 | 82.4 % bound | 86% | 51% | – | CC(=O)N1C[C@H](NC(=O)c2nccnc2N2CC(Oc3cc(F)cc(F)c3)C2)C(F)(F)C1 [Example 10a] | > 10 µM
2 | 84.4 % bound | 82% | 49% | 82^6 % untreated control | CC(=O)N1C[C@H](NC(=O)c2nccnc2N2CC(Oc3cc(F)c(F)c(F)c3)C2)C(F)(F)C1 [Example 11b] | > 10 µM
3 | 90.2 % bound | 92% | 6% | – | CC(=O)N1CC[C@@H](NC(=O)c2nsnc2N2CC(Oc3cc(F)cc(F)c3)C2)C1 [Example 15a] | > 10 µM
